Laboratory results reported in ChEMBL document CHEMBL4325853, “Design, synthesis and antibacterial evaluation of 2,4-disubstituted-6-thiophenyl-pyrimidines” (Eur J Med Chem, 2019).
Active and inactive are the calls of the source. The rule behind the calls is not given here.

How the values were obtained:
[1] = system: Staphylococcus aureus; assay: Ratio of MIC for Staphylococcus aureus ATCC 29213 after and before 5 serial passages; format: functional
[2] = system: Staphylococcus aureus; assay: Ratio of MIC for Staphylococcus aureus ATCC 29213 after and before 5 to 21 serial passages; format: functional
[3] = biological target: T1, Cell division protein FtsZ (Staphylococcus aureus) (UniProt P0A031); assay: Inhibition of recombinant Staphylococcus aureus FtsZ polymerization by 90 degree light scattering-based fluorescence spectrometric analysis
T1 sequence (whole entry): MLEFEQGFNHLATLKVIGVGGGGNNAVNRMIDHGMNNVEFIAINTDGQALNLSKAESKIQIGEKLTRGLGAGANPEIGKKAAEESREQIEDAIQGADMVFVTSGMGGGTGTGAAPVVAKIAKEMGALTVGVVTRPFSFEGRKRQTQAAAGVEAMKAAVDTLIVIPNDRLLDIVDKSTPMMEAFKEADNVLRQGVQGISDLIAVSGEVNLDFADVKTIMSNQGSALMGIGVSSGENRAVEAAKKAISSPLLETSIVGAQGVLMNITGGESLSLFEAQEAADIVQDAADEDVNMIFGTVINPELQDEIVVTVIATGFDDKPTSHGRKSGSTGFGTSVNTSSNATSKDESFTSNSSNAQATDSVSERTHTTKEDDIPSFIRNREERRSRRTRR

[4] = biological target: T1, Cell division protein FtsZ (Staphylococcus aureus); assay: Inhibition of recombinant Staphylococcus aureus FtsZ polymerization assessed as reduction in size of protein polymers at 4 ug/ml preincubated for 10 mins followed by GTP addition and measured after 15 mins by transmission electron microscopic method
[5] = biological target: T1, Cell division protein FtsZ (Staphylococcus aureus); assay: Inhibition of recombinant Staphylococcus aureus FtsZ polymerization assessed as reduction in bundling of protein protofilaments at 4 ug/ml preincubated for 10 mins followed by GTP addition and measured after 15 mins by transmission electron microscopic method
[6] = biological target: T1, Cell division protein FtsZ (Staphylococcus aureus); assay: Inhibition of recombinant Staphylococcus aureus FtsZ GTPase activity assessed as reduction in inorganic phosphate formation at 2 ug/ml after 30 mins by colorimetric method relative to control
[7] = system: Bacillus subtilis; assay: Induction of morphological changes in Bacillus subtilis 168 assessed as cell length at 2 ug/ml after 4.5 hrs by phase contrast microscopic analysis (reference value: 5 to 10 micrometer); format: functional, subsp. subtilis str. 168

COc1cccc(OC)c1C(=O)N[C@@H]1C(=O)N2[C@@H]1SC(C)(C)[C@@H]2C(=O)O [METHICILLIN]
Ratio [1]: 4
Ratio [2]: 32

CC(C)c1ccc(CN2CCCN(CCc3cc(-c4cccs4)nc(-c4ccncc4)n3)CC2)cc1
inhibition [3]: Dose-dependent effect
inhibition [4]: Active
inhibition [5]: Active
inhibition [6]: 25%
Activity [7]: >20 um
